Results as given in patent US7629310B2, “RhoB as a suppressor of cancer cell growth, cell transformation, and metastasis” (University of South Florida, priority 2000, dated 2009).

Legend:
[1] = test system: PANC-1 cells; assay: Invasion through […]-coated transfilters, PANC-1 cells; type: cell-based, human; conditions: PANC-1 cells (FIG. 9B)
Method: HRas/3T3 cells (FIG. 9A) and PANC-1 cells (FIG. 9B) were transiently transfected with pcDNA3 vector control, H-Ras61L, CA-Akt, or WT-Akt in the presence or absence of RhoA, RhoB, or pcDNA3 for 36 hours. The cells were then split and analyzed for their invading capabilities through […]-coated transfilters as described in the Materials and Methods section. PANC-1 and PC3 cells (FIG. 9C) were transiently transfected with pcDNA3, with H-Ras61L in the presence or absence of RhoA, or RhoB for 36 hours. The cells were then serum-starved for another 36 hours; the conditioned medium was collected and 20 μg protein were analyzed for MMP-2 expression by Western Blotting.
Whether RhoB can also antagonize cell invasion was evaluated. To this end, H-Ras/3T3 and PANC-1 cells were similarly transfected as above with various oncogenes along with RhoA or RhoB, then seeded onto […]-coated poly-hydrocarbonate filters mounted in the middle of a Boyden transwell apparatus as described under Methods. […] Furthermore, transfection with CA-Akt or WT-Akt enhanced invasion; and RhoB, not RhoA, inhibited this enhancement of invasion (FIGS. 9A and 9B).

[2] = test system: RhoB promoter; assay: RhoB promoter transcriptional activity in H-Ras/3T3 cells; type: cell-based; conditions: treated 12 hours (FIG. 6B)
From the text: The cell lysates were processed as in FIGS. 5A-5D. […] The cell lysates were processed as in FIGS. 5A-5D. […] The cell lysates were processed as in FIGS. 5A-5D. Gene Constructs and RhoB Promoter Transcriptional Activity Assay. Constitutively active H-Ras61L, K-RasV12, N-RasV12, and dominant negative […]-Ras were kind gifts from Dr. Channing Der (University of North Carolina) (Khosravi-Far, R. et al., Mol Cell Biol, 1995, 15:6443-53; Quilliam, L. A. et al., Mol Cell Biol, 1994, 14:1113-21). Wild-type RhoA and RhoB were subcloned into hemaglutinin (HA)-tagged pcDNA3 (INVITROGEN). The orientation and the sequences of these genes were confirmed by DNA sequencing facilities at the H. Lee Moffitt Cancer Center, Tampa, Fla. RhoB promoter construct pGEI was kindly provided by Dr Y. Monden (Banyu Tsukuba Research, Japan) (Nakamura et al., 1996). pCMV-β-galactosidase vector was purchased from INVITROGEN. The plasmid containing CA-, DN-PI3K, Mek and Akt were kindly provided by Dr. Julie Y. Djeu (H. Lee Moffitt Cancer and Research Institute, Tampa, Fla.) (Jiang, K. et al., Blood, 2003, 101:236-44). β-galactosidase activity and luciferase assay kits were purchased from PROMEGA Corporation, Madison, Wis. […] The RhoB promoter transcriptional activity was determined by dividing the luciferase/β-Gal values from oncogene-transfected cells by those from pcDNA3-transfected cells. […]

| Compound | invasion through MATRIGEL [1] | induction of RhoB promoter activity [2] |
| --- | --- | --- |
| RhoA: closely related family member sharing 86% sequence identity with RhoB; wild-type, in HA-tagged pcDNA3, transfected as control | invaded |  |
| O=c1[nH]cc(F)c(=O)[nH]1 [5-FU, 5-fluorouracil] |  | little effect |
